Data on two compounds can be found in PMC3602015 (PLoS ONE, 2013).

For series [1], the target named is T1, human P-gp with 1236T-2677A-3435T genotype (Homo sapiens, UniProt P08183, S893T).
Protocol: (§1) For efflux assays, 1×10^5 cells were seeded on 96-well plates and cultured for 24 hours. […] After washed with warm PBS, cells were allowed to efflux rhodamine123 for 10 min at 37°C in the incubator. Samples (150 µl) were collected and transferred to 96-well black plates. Rhodamine123 concentrations were measured using a set of standards (from 62.5 nM to 8 µM) in HBSS analyzed by the SpectraMax Gemini XS microplate spectrofluorometer (Molecular Devices Co., Sunnyvale, CA, USA) with the excitation set at 485 nm and the emission set at 535 nm. The measured rhodamine123 concentrations were normalized to the total protein content in the cells. Total protein concentrations were measured by a microplate assay protocol (Dc protein assay reagent, Bio-Rad, Hercules, CA, USA), and bovine serum albumin was used as the standard. Each experiment was repeated at least three times across cell passages to ensure stability of transfection and consistency and reproducibility of the experiments.
(§2) For kinetic studies, kinetic parameters were estimated by nonlinear regression using Scientist v2.01 (MicroMath Scientific Software, Salt Lake City, UT, U.S.A.) according to the following equation: [drawing 6] Where V denoted the efflux rate; Vmax, the maximal efflux rate; Km, the Michaelis-Menten constant and C is the substrate concentration.
For series [2], the target named is T1, human P-gp with 1236T-2677A-3435T genotype. Briefly: in vitro.
Protocol: as §1, §2
Series [3] deals with T2, human P-gp with 1236T-2677T-3435T genotype (Homo sapiens, UniProt P08183).
Protocol: as §1, §2
Series [4] concerns the target T3, human wild-type P-gp (ABCB1 1236C-2677G-3435C) (Homo sapiens, UniProt P08183, S893A). Briefly: in vitro.
Protocol: as §1, §2
Series [5] concerns the target T3, human wild-type P-gp (ABCB1 1236C-2677G-3435C).
Protocol: as §1, §2
For series [6], the target named is T2, human P-gp with 1236T-2677T-3435T genotype. Briefly: in vitro.
Protocol: as §1, §2
For series [7], the target named is T1, human P-gp with 1236T-2677A-3435T genotype. Kind of series: cell-based.
Protocol: as §1, §2
The conditions of series [8]: cited from earlier work.
The test system of the next series is Flp-In™-293 cells. Kind of series: Cytotoxicity assay (MTT). Format: cell-based, human. The note with it: methadone 0.5 to 40 µM; 48 hours. The procedure:
Briefly, the cells were seeded into 24-well plates and cultured overnight. […] After incubation, the medium was removed and added fresh culture medium 200 µl containing 0.5 mg/ml MTT and then incubated at 37°C for 4 hours. After incubation, the medium was removed and 200 µl DMSO was added, and incubation for 30 minutes at room temperature. After incubation, 100 µl of solution was transferred to a 96-well plate and absorbance was measured using an ELISA plate reader (Molecular Devices, Sunnyvale, USA) at 570 nm with a reference wavelength of 650 nm.

Series [9] deals with T2, human P-gp with 1236T-2677T-3435T genotype. Briefly: cell-based.
Protocol: as §1, §2
Series [10] has as its target T3, human wild-type P-gp (ABCB1 1236C-2677G-3435C). Briefly: cell-based.
Protocol: as §1, §2

The structures appear in SMILES notation.

T1 sequence (P08183 whole entry S893T): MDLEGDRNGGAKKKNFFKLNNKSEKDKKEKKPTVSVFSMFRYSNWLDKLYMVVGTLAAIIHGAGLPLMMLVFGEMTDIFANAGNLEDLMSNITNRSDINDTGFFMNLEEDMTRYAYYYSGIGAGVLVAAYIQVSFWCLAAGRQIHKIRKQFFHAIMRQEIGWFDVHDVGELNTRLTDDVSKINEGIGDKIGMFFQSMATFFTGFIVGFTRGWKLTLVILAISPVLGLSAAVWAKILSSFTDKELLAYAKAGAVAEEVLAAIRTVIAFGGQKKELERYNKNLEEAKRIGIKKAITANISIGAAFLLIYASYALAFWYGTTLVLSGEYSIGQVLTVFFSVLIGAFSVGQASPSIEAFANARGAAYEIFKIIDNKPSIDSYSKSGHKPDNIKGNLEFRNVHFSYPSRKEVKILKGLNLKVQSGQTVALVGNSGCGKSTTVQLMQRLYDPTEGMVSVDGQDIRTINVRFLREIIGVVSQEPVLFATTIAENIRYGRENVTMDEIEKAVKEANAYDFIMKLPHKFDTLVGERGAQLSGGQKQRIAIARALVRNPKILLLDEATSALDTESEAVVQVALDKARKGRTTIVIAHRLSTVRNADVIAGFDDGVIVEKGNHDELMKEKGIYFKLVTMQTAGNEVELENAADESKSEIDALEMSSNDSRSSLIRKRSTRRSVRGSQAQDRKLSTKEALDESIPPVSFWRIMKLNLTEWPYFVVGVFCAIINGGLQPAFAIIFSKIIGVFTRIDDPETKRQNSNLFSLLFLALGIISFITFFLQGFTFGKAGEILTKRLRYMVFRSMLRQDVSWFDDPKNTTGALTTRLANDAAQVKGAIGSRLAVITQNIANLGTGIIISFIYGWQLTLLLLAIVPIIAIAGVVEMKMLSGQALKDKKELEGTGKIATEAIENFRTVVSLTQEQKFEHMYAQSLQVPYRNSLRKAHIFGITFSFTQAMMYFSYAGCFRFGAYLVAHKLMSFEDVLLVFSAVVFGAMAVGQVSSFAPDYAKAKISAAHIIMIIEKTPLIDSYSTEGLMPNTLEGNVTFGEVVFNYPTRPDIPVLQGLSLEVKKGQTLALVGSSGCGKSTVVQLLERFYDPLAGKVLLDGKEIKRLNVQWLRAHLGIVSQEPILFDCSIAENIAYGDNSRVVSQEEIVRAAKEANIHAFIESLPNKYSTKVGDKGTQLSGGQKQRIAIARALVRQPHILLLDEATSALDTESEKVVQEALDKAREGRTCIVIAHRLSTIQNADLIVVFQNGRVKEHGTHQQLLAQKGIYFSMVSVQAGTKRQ
T3 sequence (P08183 whole entry S893A): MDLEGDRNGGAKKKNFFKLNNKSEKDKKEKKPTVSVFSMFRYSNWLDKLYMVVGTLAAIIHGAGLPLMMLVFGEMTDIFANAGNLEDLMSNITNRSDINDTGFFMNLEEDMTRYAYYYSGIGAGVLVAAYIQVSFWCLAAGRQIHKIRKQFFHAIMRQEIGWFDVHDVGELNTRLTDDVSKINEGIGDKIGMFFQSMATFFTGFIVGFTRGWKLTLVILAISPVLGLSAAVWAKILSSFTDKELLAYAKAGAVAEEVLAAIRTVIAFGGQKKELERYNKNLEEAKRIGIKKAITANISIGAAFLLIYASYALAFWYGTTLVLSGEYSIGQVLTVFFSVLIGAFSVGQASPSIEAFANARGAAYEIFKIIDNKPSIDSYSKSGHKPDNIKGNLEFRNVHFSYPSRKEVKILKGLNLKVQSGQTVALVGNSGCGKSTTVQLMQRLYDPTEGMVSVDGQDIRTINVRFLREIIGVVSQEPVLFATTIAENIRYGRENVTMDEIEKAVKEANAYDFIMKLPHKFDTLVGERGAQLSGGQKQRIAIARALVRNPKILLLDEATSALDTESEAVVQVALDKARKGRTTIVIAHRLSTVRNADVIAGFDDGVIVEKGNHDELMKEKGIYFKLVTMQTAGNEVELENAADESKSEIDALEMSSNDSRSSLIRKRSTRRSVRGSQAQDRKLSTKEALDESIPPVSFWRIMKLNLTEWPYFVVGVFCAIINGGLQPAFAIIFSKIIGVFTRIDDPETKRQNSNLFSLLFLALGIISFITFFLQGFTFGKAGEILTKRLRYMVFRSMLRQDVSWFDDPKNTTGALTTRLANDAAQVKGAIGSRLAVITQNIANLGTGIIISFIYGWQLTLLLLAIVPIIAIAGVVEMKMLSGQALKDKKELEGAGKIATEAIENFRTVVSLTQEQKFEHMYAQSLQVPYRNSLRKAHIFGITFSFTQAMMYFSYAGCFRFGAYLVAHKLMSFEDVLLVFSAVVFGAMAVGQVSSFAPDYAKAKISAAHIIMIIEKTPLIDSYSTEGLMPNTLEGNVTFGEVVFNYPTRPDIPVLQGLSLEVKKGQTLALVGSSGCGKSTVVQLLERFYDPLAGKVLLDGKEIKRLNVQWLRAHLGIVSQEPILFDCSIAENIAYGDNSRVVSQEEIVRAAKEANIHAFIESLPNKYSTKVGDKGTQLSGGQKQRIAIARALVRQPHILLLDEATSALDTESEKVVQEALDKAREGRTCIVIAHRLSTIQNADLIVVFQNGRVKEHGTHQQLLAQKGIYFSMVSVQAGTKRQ
T2 sequence (P08183 whole entry): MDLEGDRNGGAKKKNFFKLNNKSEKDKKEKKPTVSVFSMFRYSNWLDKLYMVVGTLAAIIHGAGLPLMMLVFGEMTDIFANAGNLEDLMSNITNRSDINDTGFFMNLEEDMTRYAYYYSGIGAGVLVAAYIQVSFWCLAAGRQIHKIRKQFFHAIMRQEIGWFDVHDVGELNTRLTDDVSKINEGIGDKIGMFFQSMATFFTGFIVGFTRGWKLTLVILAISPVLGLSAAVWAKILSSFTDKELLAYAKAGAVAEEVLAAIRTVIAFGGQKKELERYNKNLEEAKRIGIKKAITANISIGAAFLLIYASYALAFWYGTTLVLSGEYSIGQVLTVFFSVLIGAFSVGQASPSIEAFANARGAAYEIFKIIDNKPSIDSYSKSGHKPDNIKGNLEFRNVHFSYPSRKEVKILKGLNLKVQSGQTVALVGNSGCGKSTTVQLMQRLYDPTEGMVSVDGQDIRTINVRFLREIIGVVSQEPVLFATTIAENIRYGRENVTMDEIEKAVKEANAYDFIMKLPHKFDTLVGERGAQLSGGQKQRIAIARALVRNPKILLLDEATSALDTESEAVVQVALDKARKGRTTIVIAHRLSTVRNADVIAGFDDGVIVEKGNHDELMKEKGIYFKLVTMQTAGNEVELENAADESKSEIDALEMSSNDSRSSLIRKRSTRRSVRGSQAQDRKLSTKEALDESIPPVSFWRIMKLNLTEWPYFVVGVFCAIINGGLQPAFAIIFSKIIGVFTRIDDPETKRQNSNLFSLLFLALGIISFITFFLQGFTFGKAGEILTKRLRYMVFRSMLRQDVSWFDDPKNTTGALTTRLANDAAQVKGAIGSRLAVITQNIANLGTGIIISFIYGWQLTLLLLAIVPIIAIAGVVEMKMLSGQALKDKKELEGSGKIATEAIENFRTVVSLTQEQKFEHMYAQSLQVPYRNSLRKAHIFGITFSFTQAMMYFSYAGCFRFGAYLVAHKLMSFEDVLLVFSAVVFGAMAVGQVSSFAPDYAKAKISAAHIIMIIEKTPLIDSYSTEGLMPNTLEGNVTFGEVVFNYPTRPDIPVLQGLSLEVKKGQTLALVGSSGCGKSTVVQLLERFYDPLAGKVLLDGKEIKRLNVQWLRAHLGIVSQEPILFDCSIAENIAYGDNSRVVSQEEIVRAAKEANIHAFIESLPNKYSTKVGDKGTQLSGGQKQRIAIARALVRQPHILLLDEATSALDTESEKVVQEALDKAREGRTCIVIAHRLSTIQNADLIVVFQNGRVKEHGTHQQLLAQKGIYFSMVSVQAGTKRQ

With `COC(=O)c1ccccc1-c1c2ccc(=N)cc-2oc2cc(N)ccc12` [Rhodamine 123], the “Vmax of rhodamine 123 efflux” value in [1] is reported as 7.34±0.63 nmole/mg protein/10 min; in series [3] it was 8.29±0.89 nmole/mg protein/10 min. For the same compound, the Km at 10 min in series [2] came to 14.8 ± 1.72 µM; in [4], 16.6 ± 3.01 µM; in series [6] it was 18.8 ± 2 µM. Moreover, in series [5], the “non-specific first-order rate constant of rhodamine 123 efflux” value was 12.08±1.23 µL/mg protein/10 min. Further, the “non-specific transport as share of the total efflux” value in series [5] amounted to 2.9%.
Take `CCC(=O)C(CC(C)N(C)C)(c1ccccc1)c1ccccc1` (stereo not drawn) [methadone]: the figures for the half-inhibitory concentration (IC50) in series [7], in series [9] and in series [10] were 4.43 ± 1.1 µM, 2.97 ± 0.09 µM and 2.17 ± 0.1 µM, respectively. Further, the inhibition constant (Ki) in [7] was found to be 4.53 ± 1.17 µM; in [9], 3.92 ± 0.07 µM; in series [10] it was 2.77 ± 0.15 µM. For the same compound, in series [8], the therapeutic range was 1 to 3 µM. The “cell viability (MTT assay)” value in the series on Flp-In™-293 cells is listed as “did not affect”.

Usually Km stands for the concentration of substrate that gives half-maximal velocity. By IC50 is commonly meant the concentration that inhibits the measured activity by half. Read a high IC50 as lower potency. What is called Ki is the equilibrium dissociation constant of an inhibitor or competing ligand from its target.
